Laboratory results as given in US5571816A, “Pyrimidines” (Hoechst Aktiengesellschaft, priority 1992, dated 1996).
Like-named read-outs stand apart in the source and are kept apart here.

Key:
[1] = Solubility in water of salts (and free bases); assay type: physicochemical; details: Table 2, salts of compounds I, temp. by No. [°C]: 1 25.5, 2 23.0, 3 22.4, 4 22.4, 5 22.0, 6 25.0, 7 25.5, 8 25.5, 9 25.5, 10 23.5, 11 23.5, 12 25.0, 13 24.0, 14 23.0, 15 22.0, 16 24.5, 17 22.5, 18 22.0; for solubility: water, read-out: Solubility in water, Concentration in % by wt.
[2] = test system: serum lipoproteins; experiment: Effect on serum lipoproteins of normolipemic male rats in a subchronic experiment; assay type: in vivo; details: Rattus norvegicus, po, by stomach tube, 7 administrations; for change in vivo at 10 mg/kg: 10 mg/kg/day; for change in vivo at 30 mg/kg: 30 mg/kg/day; for change in vivo at 3 mg/kg: 3 mg/kg/day
How it was run: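 Male HOE: WISKf rats (>180 g, 10/group) dosed orally by stomach tube once daily for 7 days in 1% aqueous Tylose; fasted 24 h and bled 24 h after last dose. Pooled serum ultracentrifuged into VLDL (d<1.006) and LDL (d 1.006–1.04); cholesterol and triglycerides measured enzymatically, protein by Lowry.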

[3] = test system: LDL receptor mRNA; experiment: Stimulation of LDL receptor mRNA expression in rat livers (Northern blot); assay type: in vivo; details: rat liver, 30 mg/kg, 6 hours after administration; untreated control = 100%
Protocol: 1b. The LDL receptor mRNA levels are also raised in rat livers by compounds of the formula I within a few hours (Table II).
(§1) The mRNA was prepared by the method described by Chomczynski, P. and Sacchi, N., in Anal. Biochem. 162, 156-159 (1987). In the case of organs (such as, for example, liver), the deep-frozen tissue was previously homogenized on dry ice in a mortar, and the mRNA was further concentrated by means of oligo dT by standard methods (cf. Sambrook, J., Fritsch, E. F. and Maniatis, T., Molecular Cloning, second edition, Cold Spring Harbor (1989); this collection of methods also includes descriptions of all the other relevant standard processes of molecular biology used here). 5 to […] of the dissolved mRNA obtained in this way were denatured by standard processes and fractionated on 1% horizontal agarose gels. The mRNA was transferred by capillary blotting to Hybond N membranes (Amersham). Used as specific hybridization probe was a partial LDL receptor cDNA clone and as internal standard was a plasmid which contained a β-actin gene. Both plasmids were labeled using a random primer kit from Amersham to a specific activity of 5×10^9 cpm/μg. Prehybridization, hybridization and washing of the filters took place by standard processes. The filters were subsequently exposed on Cronex 4 films (Dupont) in the presence of an intensifying screen at -70° C. overnight or for up to 14 days, and the hybridization signals were quantified from the intensity of blackening of the film using a commercially available laser densitometer. Subsequently, the quotient of the intensity of the LDL receptor band and of the actin band was determined as internal standard to correct for variations in yield.
Liver tissue was removed and shock-frozen in liquid nitrogen.
Subsequently, the mRNA was isolated as described and, by means of the Northern blot technique, the relative LDL receptor mRNA levels were determined. The mRNA level of untreated control animals was set equal to 100%, and the stimulation of the LDL receptor mRNA was calculated as a percentage of the […]

[4] = test system: LDL receptor mRNA; experiment: Stimulation of LDL receptor mRNA expression in HepG2 cells (Northern blot); assay type: cell-based; details: Homo sapiens; HepG2, 2 × 10^-6 M, 16 h; control = 100%; ratio to β-actin mRNA
Protocol: 1a. In the human hepatocytoma cell line HepG2, which is recognized everywhere as model, the LDL receptor mRNA levels are increased by the compounds of the formula I (Table I).
as §1
The HepG2 cells were incubated in RPMI 1640 standard medium with fetal calf serum (final concentration 10%). Serum-free RPMI medium was used as induction control. Subsequently, the complete mRNA was prepared and, by means of the Northern blot technique, the relevant LDL receptor mRNA and β-actin mRNA levels were determined. The quotient of the LDL receptor mRNA signal and of the β-actin mRNA signal of the control (without added substance) was set equal to 100%, and the stimulation above this of the LDL receptor mRNA levels achieved under the influence of the compounds was expressed as percentage of the control.

[5] = read-out: Serum LDL cholesterol, % change from control at end of treatment
[6] = read-out: Serum LDL protein, % change from control at end of treatment
[7] = read-out: Serum VLDL cholesterol, % change from control at end of treatment
[8] = read-out: Serum VLDL protein, % change from control at end of treatment
[9] = read-out: Serum VLDL triglycerides, % change from control at end of treatment

| 1 part by mass dissolves in ... parts by H2O [1] [parts by H2 O] | solubility [1] [mg/mL] | Structure (SMILES) | change in vivo at 10 mg/kg [2, 5] [%] | change in vivo at 10 mg/kg [2, 6] [%] | change in vivo at 10 mg/kg [2, 7] [%] | change in vivo at 10 mg/kg [2, 8] [%] | change in vivo at 10 mg/kg [2, 9] [%] | change in vivo at 30 mg/kg [2, 5] [%] | change in vivo at 30 mg/kg [2, 6] [%] | change in vivo at 30 mg/kg [2, 7] [%] | change in vivo at 30 mg/kg [2, 8] [%] | change in vivo at 30 mg/kg [2, 9] [%] | LDL receptor mRNA [3] [%] | activity at 2 µM [4] [%] | change in vivo at 3 mg/kg [2, 5] [%] | change in vivo at 3 mg/kg [2, 6] [%] | change in vivo at 3 mg/kg [2, 7] [%] | change in vivo at 3 mg/kg [2, 8] [%] |
| --- | --- | --- | --- | --- | --- | --- | --- | --- | --- | --- | --- | --- | --- | --- | --- | --- | --- | --- |
| 22.8 | 42 | CCCN(C(=O)c1cnc(N2CC(C)(C)NC2=O)nc1N)c1cccc(C(F)(F)F)c1 [Example 33] | -47 | -33 | 48 | -29 | -73 | -67 | 44 | -95 | -33 | -100 | 350 | 205 | – | – | – | – |
| 12.1 | 76.6 | C=CCN(C(=O)c1cnc(N2CC(C)(C)NC2=O)nc1N)c1cccc(C(F)(F)F)c1 [Example 40] | -53 | -38 | -40 | -41 | -2 | -58 | -52 | -57 | -52 | -41 | 340 | 180 | -22 | -18 | -19 | -11 |
